Bridge positions count the residues as written; N and C are the ends. Square brackets hold non-standard residues; d marks the D form. Peptide text beside a SMILES is read from it. * marks the point of attachment. Phe(3,4,5-F3) = N[C@@H](Cc1cc(F)c(F)c(F)c1)C(=O)O; Bip = N[C@@H](Cc1ccc(-c2ccccc2)cc1)C(=O)O; Phe(3-Me) = Cc1cccc(C[C@H](N)C(=O)O)c1; Val(3-OH) = CC(C)(O)[C@H](N)C(=O)O; 4Pal = N[C@@H](Cc1ccncc1)C(=O)O; Aad = N[C@@H](CCCC(=O)O)C(=O)O; Cha = N[C@@H](CC1CCCCC1)C(=O)O; aThr = C[C@H](O)[C@H](N)C(=O)O; Carboxymethyl = O=C(O)C*; Orn = NCCC[C@H](N)C(=O)O; Aun = NCCCCCCCCCCC(=O)O; Dab = NCC[C@H](N)C(=O)O; Nva = CCC[C@H](N)C(=O)O
Target: T1, PD-1/PD-L1 interaction (PE-labeled human PD-L1-Ig binding to Jurkat cell line over-expressing human PD-1) (Homo sapiens, UniProt Q15116)
T1 construct: expressed in transfected cells; host or cells: Jurkat
Test: Jurkat-PD-1 Cell Binding High-Content Screening Assay (CBA)
Format: cell-based
Details: Jurkat cell line over-expressing human PD-1; PE-labeled PD-L1-Ig 20 nM final; read-out: Jurkat hPD1-PDL1 IC50
Procedure, shortened: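 Binding of fluorescent PD-L1-Ig (20 nM final) to Jurkat-PD-1 cells was measured by automated imaging after 1 h, following a 2 h compound pre-treatment at 37° C.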

T1 sequence (Q15116 25-288): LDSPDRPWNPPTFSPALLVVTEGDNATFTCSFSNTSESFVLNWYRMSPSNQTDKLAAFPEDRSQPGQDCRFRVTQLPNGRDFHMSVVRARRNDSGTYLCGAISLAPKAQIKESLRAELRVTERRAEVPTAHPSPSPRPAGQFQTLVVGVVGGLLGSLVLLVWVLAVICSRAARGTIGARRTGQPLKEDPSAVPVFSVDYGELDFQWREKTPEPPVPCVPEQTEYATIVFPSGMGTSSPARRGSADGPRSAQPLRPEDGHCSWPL

Structure (SMILES)	IC50 [nM]
COc1ccc(C[C@@H]2NC(=O)[C@H](Cc3ccncc3)NC(=O)CSC[C@@H](C(=O)N[C@@H](CCN)C(=O)NCCCCCCCCCCC(=O)O)NC(=O)[C@H](CO)NC(=O)[C@H](C(C)(C)O)NC(=O)[C@H](CC3CCCCC3)NC(=O)[C@H](CCN)NC(=O)[C@@H](CC(C)C)NC(=O)[C@H](CCCN)NC(=O)[C@H](Cc3ccc(OCC(=O)O)cc3)NC(=O)[C@H](Cc3ccc(-c4ccccc4)cc3)NC(=O)[C@H](Cc3ccc(OCC(=O)O)cc3)NC(=O)[C@H](Cc3cccc(C)c3)NC(=O)[C@H](CC(=O)O)NC2=O)cc1 [Compound 2197] ({CH2CO}-[4Pal]Y(Me)D[Phe(3-Me)]Y(Carboxymethyl)[Bip]Y(Carboxymethyl)[Orn][dL][Dab][Cha][Val(3-OH)]SC[Dab][Aun]-OH; thioether N-14)	15.1
Cc1cccc(C[C@@H]2NC(=O)[C@H](CC(=O)O)NC(=O)[C@H](CCCC(=O)O)NC(=O)[C@H]([C@@H](C)O)NC(=O)CSC[C@@H](C(=O)N[C@@H](CCN)C(=O)NCCCCCCCCCCC(=O)O)NC(=O)[C@H](CO)NC(=O)[C@H](C(C)(C)O)NC(=O)[C@H](CC3CCCCC3)NC(=O)[C@H](CCN)NC(=O)[C@@H](CC(C)C)NC(=O)[C@H](CCCN)NC(=O)[C@H](Cc3ccc(OCC(=O)O)cc3)NC(=O)[C@H](Cc3ccc(-c4ccccc4)cc3)NC(=O)[C@H](Cc3ccc(OCC(=O)O)cc3)NC2=O)c1 [Compound 2198] ({CH2CO}-T[Aad]D[Phe(3-Me)]Y(Carboxymethyl)[Bip]Y(Carboxymethyl)[Orn][dL][Dab][Cha][Val(3-OH)]SC[Dab][Aun]-OH; thioether N-14)	48.1
Cc1cccc(C[C@@H]2NC(=O)[C@H](CC(=O)O)NC(=O)[C@H](Cc3ccc(OCC(=O)O)cc3)NC(=O)[C@H](Cc3cc(F)c(F)c(F)c3)NC(=O)CSC[C@@H](C(=O)N[C@@H](CCN)C(=O)NCCCCCCCCCCC(=O)O)NC(=O)[C@H](CO)NC(=O)[C@H](C(C)(C)O)NC(=O)[C@H](CC3CCCCC3)NC(=O)[C@H](CCN)NC(=O)[C@@H](CC(C)C)NC(=O)[C@H](CCCN)NC(=O)[C@H](Cc3ccc(OCC(=O)O)cc3)NC(=O)[C@H](Cc3ccc(-c4ccccc4)cc3)NC(=O)[C@H](Cc3ccc(OCC(=O)O)cc3)NC2=O)c1 [Compound 2199] ({CH2CO}-[Phe(3,4,5-F3)]Y(Carboxymethyl)D[Phe(3-Me)]Y(Carboxymethyl)[Bip]Y(Carboxymethyl)[Orn][dL][Dab][Cha][Val(3-OH)]SC[Dab][Aun]-OH; thioether N-14)	50
Cc1cccc(C[C@@H]2NC(=O)[C@H](CC(=O)O)NC(=O)[C@H](Cc3cc(F)c(F)c(F)c3)NC(=O)[C@H](Cc3ccncc3)NC(=O)CSC[C@@H](C(=O)N[C@@H](CCN)C(=O)NCCCCCCCCCCC(=O)O)NC(=O)[C@H](CO)NC(=O)[C@H](C(C)(C)O)NC(=O)[C@H](CC3CCCCC3)NC(=O)[C@H](CCN)NC(=O)[C@@H](CC(C)C)NC(=O)[C@H](CCCN)NC(=O)[C@H](Cc3ccc(OCC(=O)O)cc3)NC(=O)[C@H](Cc3ccc(-c4ccccc4)cc3)NC(=O)[C@H](Cc3ccc(OCC(=O)O)cc3)NC2=O)c1 [Compound 2200] ({CH2CO}-[4Pal][Phe(3,4,5-F3)]D[Phe(3-Me)]Y(Carboxymethyl)[Bip]Y(Carboxymethyl)[Orn][dL][Dab][Cha][Val(3-OH)]SC[Dab][Aun]-OH; thioether N-14)	28.8
CC(C)C[C@H]1NC(=O)[C@H](CCCN)NC(=O)[C@H](Cc2ccc(OCC(=O)O)cc2)NC(=O)[C@H](Cc2ccc(-c3ccccc3)cc2)NC(=O)[C@H](Cc2ccc(OCC(=O)O)cc2)NC(=O)[C@H](Cc2cc(F)c(F)c(F)c2)NC(=O)[C@H](CC(=O)O)NC(=O)[C@H](Cc2ccc(OCC(=O)O)cc2)NC(=O)[C@H](Cc2ccncc2)NC(=O)CSC[C@@H](C(=O)N[C@@H](CCN)C(=O)NCCCCCCCCCCC(=O)O)NC(=O)[C@H](CO)NC(=O)[C@H](C(C)(C)O)NC(=O)[C@H](CC2CCCCC2)NC(=O)[C@H](CCN)NC1=O [Compound 2201] ({CH2CO}-[4Pal]Y(Carboxymethyl)D[Phe(3,4,5-F3)]Y(Carboxymethyl)[Bip]Y(Carboxymethyl)[Orn][dL][Dab][Cha][Val(3-OH)]SC[Dab][Aun]-OH; thioether N-14)	78.4
Cc1cccc(C[C@@H]2NC(=O)[C@H](CC(=O)O)NC(=O)[C@H](Cc3ccc(OCC(=O)O)cc3)NC(=O)[C@H](Cc3ccncc3)NC(=O)CSC[C@@H](C(=O)N[C@@H](CCN)C(=O)NCCCCCCCCCCC(=O)O)NC(=O)[C@H](CO)NC(=O)[C@H](C(C)(C)O)NC(=O)[C@H](CC3CCCCC3)NC(=O)[C@H](CCN)NC(=O)[C@@H](CC(C)C)NC(=O)[C@H](CCCN)NC(=O)[C@H](Cc3ccc(OCC(=O)O)cc3)NC(=O)[C@H](Cc3ccc(-c4ccccc4)cc3)NC(=O)[C@H](Cc3cc(F)c(F)c(F)c3)NC2=O)c1 [Compound 2202] ({CH2CO}-[4Pal]Y(Carboxymethyl)D[Phe(3-Me)][Phe(3,4,5-F3)][Bip]Y(Carboxymethyl)[Orn][dL][Dab][Cha][Val(3-OH)]SC[Dab][Aun]-OH; thioether N-14)	25.9
Cc1cccc(C[C@@H]2NC(=O)[C@H](CC(=O)O)NC(=O)[C@H](Cc3ccc(OCC(=O)O)cc3)NC(=O)[C@H](Cc3ccncc3)NC(=O)CSC[C@@H](C(=O)N[C@@H](CCN)C(=O)NCCCCCCCCCCC(=O)O)NC(=O)[C@H](CO)NC(=O)[C@H](C(C)(C)O)NC(=O)[C@H](CC3CCCCC3)NC(=O)[C@H](CCN)NC(=O)[C@@H](CC(C)C)NC(=O)[C@H](CCCN)NC(=O)[C@H](Cc3cc(F)c(F)c(F)c3)NC(=O)[C@H](Cc3ccc(-c4ccccc4)cc3)NC(=O)[C@H](Cc3ccc(OCC(=O)O)cc3)NC2=O)c1 [Compound 2203] ({CH2CO}-[4Pal]Y(Carboxymethyl)D[Phe(3-Me)]Y(Carboxymethyl)[Bip][Phe(3,4,5-F3)][Orn][dL][Dab][Cha][Val(3-OH)]SC[Dab][Aun]-OH; thioether N-14)	41.7
CCC[C@@H]1NC(=O)CSC[C@@H](C(=O)N[C@@H](CCN)C(=O)NCCCCCCCCCCC(=O)O)NC(=O)[C@H](CO)NC(=O)[C@H](C(C)(C)O)NC(=O)[C@H](CC2CCCCC2)NC(=O)[C@H](CCN)NC(=O)[C@@H](CC(C)C)NC(=O)[C@H](CCCN)NC(=O)[C@H](Cc2ccc(OCC(=O)O)cc2)NC(=O)[C@H](Cc2ccc(-c3ccccc3)cc2)NC(=O)[C@H](Cc2ccc(OCC(=O)O)cc2)NC(=O)[C@H](Cc2cccc(C)c2)NC(=O)[C@H](CC(=O)O)NC(=O)[C@H](Cc2ccc(OCC(=O)O)cc2)NC1=O [Compound 2204] ({CH2CO}-[Nva]Y(Carboxymethyl)D[Phe(3-Me)]Y(Carboxymethyl)[Bip]Y(Carboxymethyl)[Orn][dL][Dab][Cha][Val(3-OH)]SC[Dab][Aun]-OH; thioether N-14)	10.6
Cc1cccc(C[C@@H]2NC(=O)[C@H](CC(=O)O)NC(=O)[C@H](Cc3ccc(OCC(=O)O)cc3)NC(=O)[C@H]([C@H](C)O)NC(=O)CSC[C@@H](C(=O)N[C@@H](CCN)C(=O)NCCCCCCCCCCC(=O)O)NC(=O)[C@H](CO)NC(=O)[C@H](C(C)(C)O)NC(=O)[C@H](CC3CCCCC3)NC(=O)[C@H](CCN)NC(=O)[C@@H](CC(C)C)NC(=O)[C@H](CCCN)NC(=O)[C@H](Cc3ccc(OCC(=O)O)cc3)NC(=O)[C@H](Cc3ccc(-c4ccccc4)cc3)NC(=O)[C@H](Cc3ccc(OCC(=O)O)cc3)NC2=O)c1 [Compound 2205] ({CH2CO}-[aThr]Y(Carboxymethyl)D[Phe(3-Me)]Y(Carboxymethyl)[Bip]Y(Carboxymethyl)[Orn][dL][Dab][Cha][Val(3-OH)]SC[Dab][Aun]-OH; thioether N-14)	12.5
